Experimental data reported in PubChem BioAssay (NCI).
Values joined by “and” are separate entries in the source; they are usually repeats but may differ in a detail not shown here. Equal values may be shown once.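 Where inhibition never reached the appropriate level, the endpoint shown equals the highest concentration tested. Otherwise, values were interpolated linearly from a five-concentration, 48-hour dose response in 96-well plates. GI50 marks 50% less growth. At the TGI there is no net growth.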

Experiments:
Test in all cases: NCI tumour cell line growth inhibition, 48 h
[1] = tested on: OVCAR-4 ovarian
[2] = tested on: MCF7 breast
[3] = tested on: MDA-MB-435
[4] = tested on: K-562 leukemia
[5] = tested on: SK-MEL-5 melanoma
[6] = tested on: EKVX NSCLC
[7] = tested on: SNB-75 CNS
[8] = tested on: ACHN renal
[9] = tested on: IGROV1 ovarian
[10] = tested on: MALME-3M melanoma

| SMILES | GI50 [1] | TGI [1] | GI50 [2] | TGI [2] | GI50 [3] | TGI [3] | GI50 [4] | TGI [4] | GI50 [5] | TGI [5] | GI50 [6] | TGI [6] | GI50 [7] | TGI [7] | GI50 [8] | TGI [8] | GI50 [9] | TGI [9] | GI50 [10] | TGI [10] |
| --- | --- | --- | --- | --- | --- | --- | --- | --- | --- | --- | --- | --- | --- | --- | --- | --- | --- | --- | --- | --- |
| Cc1cc(C(=O)c2ccccc2)c(C)c2c1[nH]c1ccc(Cl)cc12 | 3.01 µM | 60 µM | 0.0361 µM | 17.9 µM | 0.0286 µM | 0.321 µM | 0.0348 µM | > 100 µM | 0.068 µM | 1.19 µM | 0.126 µM | > 100 µM | 0.025 µM | 3.42 µM | 0.0669 µM | 15.5 µM | 0.0657 µM | 15.7 µM | 0.0558 µM | 15.9 µM |
| Cc1ccc(-c2cc(O)c(-c3ccc(C)cc3C)cc2O)c(C)c1 | 4.27 µM | 18.5 µM | 3.74 µM | 23.1 µM | 6.98 µM | 45.1 µM | 5.1 µM | > 100 µM | 1.11 µM | 10.2 µM | 5.45 µM | 37.3 µM | 5.46 µM | 19.7 µM | 8.17 µM | 23 µM | 8.25 µM | 39 µM | 12.9 µM | 28.2 µM |
| CC(C)(C)c1ccc(NS(=O)(=O)c2ccc3nc(NC(=O)c4cnccn4)[nH]c3c2)cc1 | 5.37 µM | 19.3 µM | 0.715 µM | 13.4 µM | 0.346 µM | 1.53 µM | 2.38 µM | > 100 µM | 1.07 µM | 6.01 µM | 5.01 µM | 18.3 µM | 1.75 µM | 6.49 µM | 2.21 µM | 7.63 µM | 1.49 µM | 13.9 µM | 1.06 µM | 13.1 µM |
| C=CC1=C(C)C2=NC1=CC1=NC(=C(CC)/C1=C\O)C=C1N=C3C(=C1C)C(=O)[C@H](C(=O)OC)C3=C1NC(=C2)[C@@H](C)[C@@H]1CCC(=O)O | – | > 100 µM | – | > 100 µM | – | > 100 µM | – | > 100 µM | – | > 100 µM | – | > 100 µM | – | > 100 µM | – | > 100 µM | – | > 100 µM | – | > 100 µM |
| C[C@@H]1COCCN1c1cc(C2(O)C[C@H]3CC[C@@H](C2)O3)c2cnn(-c3ccn[nH]3)c2n1 (stereo partly drawn) | 0.0397 µM | 0.419 µM | < 0.0106 µM | 1.38 µM | 0.0685 µM | 0.692 µM | 0.063 µM | > 100 µM | 0.107 µM | 0.279 µM | 0.139 µM | 0.845 µM | 0.043 µM | 0.411 µM | 0.0316 µM | 0.353 µM | 0.0453 µM | 0.977 µM | 0.0656 µM | 0.462 µM |
| O=[N+]([O-])c1cccc2nccc(NCCCO)c12 | – | 23.8 µM | – | 27.9 µM | – | 26.9 µM | – | 49.3 µM | – | 14.4 µM | – | 23.2 µM | – | 62.6 µM | – | 53.5 µM | – | 27.5 µM | – | 22.1 µM |
| COC(=O)C(C)NC(=O)c1ccccc1I(OS(=O)(=O)C(F)(F)F)c1ccccc1 (stereo not drawn) | 19.1 µM | 50.9 µM | 22.3 µM | > 65.5 µM | > 41.3 µM | > 57.1 µM | > 42.4 µM | > 63.7 µM | 13.2 µM | 26.5 µM | 25.6 µM | 88.9 µM | > 49 µM | > 87.8 µM | 19.2 µM | 36.4 µM | 36.4 µM | > 100 µM | 14 µM | 29.5 µM |
| C[C@@H](Nc1nc(Nc2ccc(F)c(Cl)c2)nc2ccccc12)C1CC1 | 1.73 µM | 12.9 µM | 2.84 µM | 13.3 µM | 3.93 µM | 15 µM | 2.82 µM | 9.75 µM | 1.55 µM | 2.96 µM | 2.72 µM | 12.4 µM | 4.08 µM | 22.3 µM | 4.11 µM | 17.3 µM | 3.06 µM | 17.7 µM | 1.66 µM | 3.65 µM |
| COc1c(B(O)O)cc(F)cc1-c1nc2ccc3[nH]ncc3c2c2c1CCCC2 | 3.8 µM | 12.1 µM | 1.53 µM | 6.57 µM | 1.78 µM | 3.6 µM | 3.27 µM | > 100 µM | 1.99 µM | 7.34 µM | 2.37 µM | 10.2 µM | < 0.01 µM | 0.0607 µM | 1.12 µM | 16.3 µM | 1.49 µM | 11.2 µM | 3.54 µM | 6.82 µM |
| CNCCN=c1ccc2c3c1c(O)c1c(O)ccc(=O)c1c3[nH]n2CCNCCO | 0.861 µM and 0.923 µM | 3.26 µM and 5.54 µM | 0.0568 µM and 0.05 µM | 7.51 µM and 5.2 µM | – | 3.32 µM | 0.224 µM and 0.296 µM | 3.66 µM and 10.9 µM | 0.0847 µM and 0.139 µM | 0.962 µM and 2.06 µM | 1.84 µM and 0.889 µM | 10.5 µM and 3.5 µM | 0.0294 µM and 0.0772 µM | 0.387 µM and 0.149 µM | 0.0844 µM and 0.0775 µM | 0.708 µM and 0.259 µM | 1.25 µM | 11.2 µM and 12.9 µM | 0.696 µM and 0.511 µM | – |
| O=c1oc2c(C(F)(F)F)cccc2cc1-c1csc(Nc2ccc(OCCF)cc2)n1 | 0.077 µM | > 66.7 µM | 0.0427 µM | > 37.6 µM | 0.0324 µM | > 100 µM | 0.0348 µM | > 100 µM | 0.0658 µM | 0.497 µM | 0.0556 µM | > 100 µM | 0.0302 µM | 12 µM | 0.0609 µM | 13.5 µM | 0.0757 µM | > 37 µM | 6.48 µM | > 91.7 µM |
| O=C(c1ccccc1)c1c(C(F)(F)F)n([O-])c2ccc(C(F)(F)F)cc2[n+]1=O | 0.156 µM | 0.36 µM | 0.305 µM | 0.82 µM | 0.567 µM | 1.28 µM | 0.319 µM | 0.779 µM | 0.504 µM | 0.933 µM | 0.234 µM | 0.597 µM | 0.52 µM | 1.13 µM | 0.102 µM | 0.26 µM | 0.205 µM | 0.408 µM | 0.545 µM | 1.2 µM |
